Results as given in paper PMC7407945, “Ranacyclin-NF, a Novel Bowman–Birk Type Protease Inhibitor from the Skin Secretion of the East Asian Frog, Pelophylax nigromaculatus” (Biology, 2020).
≈ marks a conversion by molar mass, not a printed value. Like-named read-outs stand apart in the source and are kept apart here. One block for each compound: values may come before it. Bridge positions count the residues as written; N and C are the ends. Ends that are not written are not given here. Peptide text beside a SMILES is read from it.

Tests used:
[1] = tested on: MRSA; assay: Checkerboard assay, peptide with Gentamicin; format: cell-based, Staphylococcus aureus; conditions: for MIC: Staphylococcus aureus, 18 h
Description: Then, the microorganism cultures (1 × 10^6 cfu/mL) were inoculated into the plate wells and incubated at 37 °C for 18 h. The optical densities of the cultures were measured using an ELISA plate reader (Biotech Minneapolis, MN, USA). The lowest cumulative fractional inhibitory concentration (ΣFIC) was calculated with the following equation:(1) ΣFIC=Compound A treated in combination/Compound A, test in alone+Compound B treated in combination/Compound B, test in alone
ΣFIC ≤ 0.5 indicates synergy; 0.5 < Σ FIC ≤ 4 indicates an additive effect; and Σ FIC > 4 represents an antagonistic effect.

[2] = tested on: Methicillin-resistant Staphylococcus aureus (MRSA) (NCTC 12493); conditions: doubling-dilution method, up to 512 µM
[3] = tested on: Escherichia coli (NCTC 10418); conditions: doubling-dilution method, up to 512 µM
[4] = tested on: Pseudomonas aeruginosa (ATTC 27853); conditions: doubling-dilution method, up to 512 µM
[5] = target: T1, trypsin (Bos taurus, UniProt P00760); assay: Trypsin inhibition assay; format: biochemical; conditions: substrate Phe-Pro-Arg-AMC
T1 construct: gene PRSS1
T1 sequence (P00760 24-246): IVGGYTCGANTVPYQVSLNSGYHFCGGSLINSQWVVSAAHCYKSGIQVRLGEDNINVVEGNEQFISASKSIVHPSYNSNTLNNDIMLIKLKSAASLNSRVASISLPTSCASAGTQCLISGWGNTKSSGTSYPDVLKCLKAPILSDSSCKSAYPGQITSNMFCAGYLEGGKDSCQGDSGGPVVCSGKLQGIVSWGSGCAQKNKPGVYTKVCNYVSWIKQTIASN
Description: (§1) Trypsin and chymotrypsin inhibition assays were performed as previously described. The substrate of trypsin and chymotrypsin were Phe-Pro-Arg-AMC and Succinyl-Ala-Ala-Pro-Phe-NHMec, respectively, and obtained from Bachem, Merseyside, UK. In the tryptase inhibition assay, peptide samples were first dissolved in tryptase assay buffer pH 7.6, containing 0.05 M Tris, 0.15 M NaCl and 0.2% (w/v) PEG 6000 (final volume 210 μL) to obtain different concentrations of 0.5, 1, 2 and 4 mM and then added to the wells of a black 96-well plate containing (Boc-Phe-Ser-Arg-NHMec, obtained from Bachem, Merseyside, UK) (50 μM). Before measurement, tryptase (2.5 μL from 1 mg/mL stock solution, Calbiochem, Nottingham, UK) was added to each well. The rate of hydrolysis of substrate was monitored continuously at 37 °C and 460 nm with a Fluostar Optima plate reader (BMG Labtech GmbH, Offenburg, Germany)

[6] = tested on: Staphylococcus aureus (NCTC 10788); conditions: doubling-dilution method, up to 512 µM
[7] = tested on: Enterococcus faecalis (NCTC 12697); conditions: doubling-dilution method, up to 512 µM
[8] = tested on: Klebsiella pneumoniae (ATCC43816); conditions: doubling-dilution method, up to 512 µM
[9] = target: T2, tryptase (Homo sapiens, UniProt Q15661); assay: Tryptase inhibition assay; format: biochemical; conditions: substrate Boc-Phe-Ser-Arg-NHMec 50 μM; pH 7.6, 0.05 M Tris, 0.15 M NaCl, 0.2% PEG 6000; 37 °C; 460 nm
T2 construct: purchased Calbiochem, Nottingham, UK
Description: as §1

[10] = tested on: Candida albicans (NCPF 1467); conditions: doubling-dilution method, up to 512 µM
[11] = target: T3, chymotrypsin (Bos taurus, UniProt P00766); assay: Chymotrypsin inhibition assay; format: biochemical; parameters: key: N.I.: there was no inhibitory activity; conditions: substrate Succinyl-Ala-Ala-Pro-Phe-NHMec
Description: as §1

[12] = tested on: HaCaT cells (human keratinocyte cell line); conditions: MTT, 24 h, 10^−9 to 10^−4 M; result in words
Description: (§2) Cells (5 × 10^3 cells/mL) were seeded into 96-well plates with FBS-containing fresh medium for 24 h. After that, cells were treated with corresponding serum-free culture medium for 12 h. […] After exposure for 6 h, all liquid was removed and 100 µL of DMSO was added. Finally, the absorbance of samples at 570 nm was determined using an ELISA plate reader (Biotech, Minneapolis, MN, USA).

[13] = tested on: human normal cell lines; conditions: MTT, 24 h, highest concentration tested 100 µM; result in words
Description: as §2

[14] = tested on: HMEC-1 cells (human microvascular endothelial cell line); conditions: MTT, 24 h, 10^−9 to 10^−4 M; result in words
Description: as §2

[15] = target: T3, chymotrypsin; parameters: method as in 2 sources, ref 24 = [24]; PMID 28356487; doi:10.1042/BSR20160593; 24. Wu Y. Long Q. Xu Y. Guo S. Chen T. Wang L. Zhou M. Zhang Y. Shaw C. Walker B. A structural and functional analogue of a Bowman–Birk-type protease inhibitor from Odorrana schmackeri Biosci. Rep. 20 ||| ref 32 = [32]; PMID 31337113; doi:10.3390/biom9070280; 32. Miao Y. Chen G. Xi X. Ma C. Wang L. Burrows J. Duan J. Zhou M. Chen T. Discovery and Rational Design of a Novel Bowman-Birk Related Protease Inhibitor Biomolecules 2019 9 280 10.3390/biom9070280 3; key: N.I.: there was no inhibitory activity; conditions: cited from earlier work
[16] = target: T2, tryptase; conditions: cited from earlier work; for tryptase inhibitory activity: result in words
From the text: Therefore, the emergence of a novel tryptase inhibitor would be an asset in the treatment of some clinical diseases. […] Some publications believe that protease inhibitors cannot work effectively when it comes t ...

[17] = target: T1, trypsin; conditions: cited from earlier work
From the text: Amino acid residues at P5′ are shaded. | column: Trypsin Inhibition Ki (nM) || In previous studies, extensive studies have been made to reveal the role played by each residue within the TIL in overall enzyme inhibitory activity. However, factors outside this conserved disulphide loop, which may affect trypsin inhibition activity, have rarely been studied. In 2012, Wang et al. discovered the peptide, HJTI, and designed one molecular variant to study the role that cationicity played in trypsin inhibitory potency. They believed that structural features, especially for amino acid residues lying outside the TIL, were crucial in modulating the effectiveness of trypsin inhibito ...

[18] = result in words; cited from earlier work
From the text: (§3) Therefore, ranacyclins firstly approach to the membrane surface through hydrophobic interaction and then, at sites where peptide concentrations reach a threshold, insert into the hydrophobic core of the membrane bilaye ...

[19] = tested on: bacteria; conditions: result in words; cited from earlier work
From the text: as §3

T2 sequence (Q15661 31-275): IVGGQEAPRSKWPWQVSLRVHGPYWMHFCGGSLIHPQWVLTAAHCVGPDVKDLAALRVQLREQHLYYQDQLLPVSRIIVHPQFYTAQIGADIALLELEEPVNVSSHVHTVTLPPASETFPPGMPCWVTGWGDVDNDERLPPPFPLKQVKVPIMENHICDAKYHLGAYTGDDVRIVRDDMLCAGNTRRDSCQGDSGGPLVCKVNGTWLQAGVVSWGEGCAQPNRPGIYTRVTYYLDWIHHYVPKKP

MIC ([1]; read-out: MIC of Gentamicin against MRSA, Gentamicin alone, 37 °C, 18 h): 2 µM
MIC ([1]; read-out: MIC of Gentamicin against MRSA, in the presence of RNF and its analogues, 37 °C, 18 h): 1 µM
Compound: CNC(C)C1CCC(N)C(OC2C(N)CC(N)C(OC3OCC(C)(O)C(NC)C3O)C2O)O1 (stereo not drawn) [Gentamicin]

Compound: C[C@H](NC(=O)CN)C(=O)N1CCC[C@H]1C(=O)N[C@@H](CCCNC(=N)N)C(=O)NCC(=O)N[C@H]1CSSC[C@@H](C(=O)N[C@@H](Cc2ccccc2)C(=O)O)NC(=O)[C@@H]2CCCN2C(=O)[C@H](CCC(N)=O)NC(=O)[C@@H]2CCCN2C(=O)[C@@H]2CCCN2C(=O)[C@H](Cc2ccc(O)cc2)NC(=O)[C@H](CO)NC(=O)[C@H](CCCCN)NC(=O)[C@H]([C@@H](C)O)NC(=O)[C@H](Cc2c[nH]c3ccccc23)NC1=O [RNF1] (H-GAPRGCWTKSYPPQPCF-OH; disulfide 6-16)
MBC MRSA [2]: > 512 µM
MIC MRSA [2]: > 512 µM
MBC E. coli [3]: > 512 µM
MIC E. coli [3]: > 512 µM
MBC P. aeruginosa [4]: > 512 µM
MIC P. aeruginosa [4]: > 512 µM
Ki [5]: 1.3 µM
MBC S. aureus [6]: > 512 µM
MIC S. aureus [6]: > 512 µM
MBC E. faecalis [7]: > 512 µM
MIC E. faecalis [7]: > 512 µM
MBC K. pneumoniae [8]: > 512 µM
MIC K. pneumoniae [8]: > 512 µM
Ki [9]: 9.06 µM
MBC C. albicans [10]: > 512 µM
MIC C. albicans [10]: > 512 µM

Compound: CC(C)C[C@H](NC(=O)[C@H](C)NC(=O)CN)C(=O)N[C@@H](CCCNC(=N)N)C(=O)NCC(=O)N[C@H]1CSSC[C@@H](C(=O)N[C@@H](Cc2ccccc2)C(N)=O)NC(=O)[C@@H]2CCCN2C(=O)[C@H](CCC(N)=O)NC(=O)[C@@H]2CCCN2C(=O)[C@@H]2CCCN2C(=O)[C@H](Cc2ccc(O)cc2)NC(=O)[C@H](CO)NC(=O)[C@H](CCCCN)NC(=O)[C@H]([C@@H](C)O)NC(=O)[C@H](Cc2c[nH]c3ccccc23)NC1=O [RNF3L] (H-GALRGCWTKSYPPQPCF-NH2; disulfide 6-16; N-terminus assumed)
effect of the combination with Gentamicin ([1]; peptide with Gentamicin, class by ΣFIC): additive effect (0.5 < Σ FIC ≤ 4 indicates an additive effect)
Ki(µM) of Chymotrypsin [11]: N.I.

Compound: C[C@H](NC(=O)CN)C(=O)N1CCC[C@H]1C(=O)N[C@@H](CCCNC(=N)N)C(=O)NCC(=O)N[C@H]1CSSC[C@@H](C(=O)N[C@@H](Cc2ccccc2)C(N)=O)NC(=O)[C@@H]2CCCN2C(=O)[C@H](CCC(N)=O)NC(=O)[C@@H]2CCCN2C(=O)[C@@H]2CCCN2C(=O)[C@H](Cc2ccc(O)cc2)NC(=O)[C@H](CO)NC(=O)[C@H](CCCCN)NC(=O)[C@H]([C@@H](C)O)NC(=O)[C@H](Cc2c[nH]c3ccccc23)NC1=O [RNF] (H-GAPRGCWTKSYPPQPCF-NH2; disulfide 6-16)
MBC MRSA [2]: > 512 µM
MIC MRSA [2]: > 512 µM
MBC E. coli [3]: > 512 µM
MIC E. coli [3]: > 512 µM
MBC P. aeruginosa [4]: > 512 µM
MIC P. aeruginosa [4]: > 512 µM
Ki [5]: 0.447 µM
MBC S. aureus [6]: > 512 µM
MIC S. aureus [6]: 512 µM (≈ 969 µg/mL)
MBC E. faecalis [7]: > 512 µM
MIC E. faecalis [7]: > 512 µM
MBC K. pneumoniae [8]: > 512 µM
MIC K. pneumoniae [8]: > 512 µM
Ki [9]: 6.77 µM
MBC C. albicans [10]: > 512 µM
MIC C. albicans [10]: > 512 µM
cytotoxicity on HaCaT [12]: negligible cytotoxicity
cytotoxicity [13]: negligible direct cytotoxicity
cytotoxicity on HMEC-1 [14]: negligible cytotoxicity

Compound: AALKGCWTKSIPPKPCF-NH2 (disulfide 6-16 (inferred)) [OSTI]
Ki(µM) of Chymotrypsin [15]: N.I.
tryptase inhibitory activity [16]: obvious tryptase inhibitory activity

Compound: AALKGCWTKSIPPKPCF-NH2 (disulfide) (disulfide 6-16; N-terminus assumed; SMILES CC[C@H](C)[C@@H]1NC(=O)[C@H](CO)NC(=O)[C@H](CCCCN)NC(=O)[C@H]([C@@H](C)O)NC(=O)[C@H](Cc2c[nH]c3ccccc23)NC(=O)[C@@H](NC(=O)CNC(=O)[C@H](CCCCN)NC(=O)[C@H](CC(C)C)NC(=O)[C@H](C)NC(=O)[C@H](C)N)CSSC[C@@H](C(=O)N[C@@H](Cc2ccccc2)C(N)=O)NC(=O)[C@@H]2CCCN2C(=O)[C@H](CCCCN)NC(=O)[C@@H]2CCCN2C(=O)[C@@H]2CCCN2C1=O) [OSTI]
Ki [17]: 0.0003 µM
Ki [16]: 2.5 µM

Compound: ALRGCWTKSIPPKPCP-NH2 (disulfide 5-15 (inferred)) [PPF-BBI]
Ki(µM) of Chymotrypsin [15]: N.I.
tryptase inhibitory activity [16]: obvious tryptase inhibitory activity

Compound: ALRGCWTKSIPPKPCP-NH2 (disulfide) (disulfide 5-15; N-terminus assumed; SMILES CC[C@H](C)[C@@H]1NC(=O)[C@H](CO)NC(=O)[C@H](CCCCN)NC(=O)[C@H]([C@@H](C)O)NC(=O)[C@H](Cc2c[nH]c3ccccc23)NC(=O)[C@@H](NC(=O)CNC(=O)[C@H](CCCNC(=N)N)NC(=O)[C@H](CC(C)C)NC(=O)[C@H](C)N)CSSC[C@@H](C(=O)N2CCC[C@H]2C(N)=O)NC(=O)[C@@H]2CCCN2C(=O)[C@H](CCCCN)NC(=O)[C@@H]2CCCN2C(=O)[C@@H]2CCCN2C1=O) [PPF-BBI]
Ki [17]: 0.17 µM
Ki [16]: 30.7 µM

Compound: GALRGCWTKSYPPKPCK-NH2 (disulfide 6-16 (inferred)) [Ranacyclin-T]
secondary structure [18]: beta-sheet structure
antimicrobial activity with respect to RNF [19]: relatively stronger antimicrobial activity

Compound: GALRGCWTKSYPPKPCK-NH2 (disulfide) (disulfide 6-16) [Ranacyclin-T]
Ki [17]: 0.116 µM

Compound: GAPKGCWTKSYPPQPCS-NH2 (disulfide) (disulfide 6-16; N-terminus assumed; SMILES C[C@H](NC(=O)CN)C(=O)N1CCC[C@H]1C(=O)N[C@@H](CCCCN)C(=O)NCC(=O)N[C@H]1CSSC[C@@H](C(=O)N[C@@H](CO)C(N)=O)NC(=O)[C@@H]2CCCN2C(=O)[C@H](CCC(N)=O)NC(=O)[C@@H]2CCCN2C(=O)[C@@H]2CCCN2C(=O)[C@H](Cc2ccc(O)cc2)NC(=O)[C@H](CO)NC(=O)[C@H](CCCCN)NC(=O)[C@H]([C@@H](C)O)NC(=O)[C@H](Cc2c[nH]c3ccccc23)NC1=O) [HJTI, Odorrana hejiangensis]
Ki [17]: 0.388 µM
